PubChem BioAssay AID248 (DTP/NCI, 2004)
Where “and” joins values, the source holds several entries; their conditions need not be identical. Equal values may be shown once. Inconclusive results and toxic doses are left out. Rule as the data show it: active = T/C of 150% or more; inactive = T/C below 125%.

Test system: L1210 leukemia ip in BDF1 mice, survival T/C
Assay: NCI In Vivo Anticancer Drug Screen. Data for tumor model L1210 Leukemia (intraperitoneal) in B6D2F1 (BDF1) mice
Conditions: endpoint: mean survival time, higher = longer survival
Outline: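 Ratio derived from survival: compound-dosed mice over vehicle-dosed mice, all bearing a transplantable tumor.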

[1] = dose: 100.0 mg/kg/injection, schedule: Q01DX001 (ip), vehicle: saline
[2] = dose: 200.0 mg/kg/injection, schedule: Q01DX001 (ip), vehicle: saline
[3] = dose: 100.0 mg/kg/injection, schedule: Q01DX001 (ip), vehicle: Klucel (hydroxypropylcellulose) (HPC)
[4] = dose: 200.0 mg/kg/injection, schedule: Q01DX001 (ip), vehicle: Klucel (hydroxypropylcellulose) (HPC)
[5] = dose: 400.0 mg/kg/injection, schedule: Q01DX001 (ip), vehicle: Klucel (hydroxypropylcellulose) (HPC)
[6] = dose: 75.0 mg/kg/injection, schedule: Q01DX001 (ip), vehicle: saline
[7] = dose: 150.0 mg/kg/injection, schedule: Q01DX001 (ip), vehicle: saline
[8] = dose: 50.0 mg/kg/injection, schedule: Q01DX009 (ip), vehicle: Klucel (hydroxypropylcellulose) (HPC)
[9] = dose: 100.0 mg/kg/injection, schedule: Q01DX009 (ip), vehicle: Klucel (hydroxypropylcellulose) (HPC)
[10] = dose: 100.0 mg/kg/injection, schedule: Q04DX003 (ip), vehicle: Klucel (hydroxypropylcellulose) (HPC)
[11] = dose: 200.0 mg/kg/injection, schedule: Q01DX009 (ip), vehicle: Klucel (hydroxypropylcellulose) (HPC)
[12] = dose: 400.0 mg/kg/injection, schedule: Q04DX003 (ip), vehicle: Klucel (hydroxypropylcellulose) (HPC)
[13] = dose: 75.0 mg/kg/injection, schedule: Q01DX001 (ip), vehicle: carboxymethylcellulose (CMC)
[14] = dose: 200.0 mg/kg/injection, schedule: Q04DX003 (ip), vehicle: Klucel (hydroxypropylcellulose) (HPC)
[15] = dose: 100.0 mg/kg/injection, schedule: Q04DX003 (ip), vehicle: saline
[16] = dose: 200.0 mg/kg/injection, schedule: Q04DX003 (ip), vehicle: saline
[17] = dose: 400.0 mg/kg/injection, schedule: Q04DX003 (ip), vehicle: saline
[18] = dose: 400.0 mg/kg/injection, schedule: Q01DX009 (ip), vehicle: Klucel (hydroxypropylcellulose) (HPC)
[19] = dose: 12.5 mg/kg/injection, schedule: Q01DX009 (ip), vehicle: saline with Tween-80
[20] = dose: 12.5 mg/kg/injection, schedule: Q04DX003 (ip), vehicle: saline with Tween-80
[21] = dose: 25.0 mg/kg/injection, schedule: Q01DX009 (ip), vehicle: saline with Tween-80
[22] = dose: 25.0 mg/kg/injection, schedule: Q04DX003 (ip), vehicle: saline with Tween-80
[23] = dose: 50.0 mg/kg/injection, schedule: Q04DX003 (ip), vehicle: saline with Tween-80
[24] = dose: 50.0 mg/kg/injection, schedule: Q01DX009 (ip), vehicle: saline with Tween-80
[25] = dose: 100.0 mg/kg/injection, schedule: Q04DX003 (ip), vehicle: saline with Tween-80

Measured: T/C

CC1(C)N=C(N)N=C(N)N1c1ccc(CC(C(=O)Nc2cccc(S(=O)(=O)F)c2)c2ccccc2)cc1 (configuration not stated)
inactive: dose: 25.0 mg/kg/injection, schedule: Q01DX001 (ip), vehicle: saline 105 % of control | dose: 50.0 mg/kg/injection, schedule: Q01DX001 (ip), vehicle: saline 106 % of control | dose: 87.5 mg/kg/injection, schedule: Q01DX001 (ip), vehicle: saline 94 % of control | [1] 97 % of control

CC(C(=O)O)S(=O)(=O)Cc1ccccc1 (configuration not stated)
inactive: [1] 94 % of control | [2] 97 % of control | dose: 400.0 mg/kg/injection, schedule: Q01DX001 (ip), vehicle: saline 100 % of control

COC(=O)C1=CN(C(=O)OC)CCC1
inactive: [3] 95 % of control | [4] 88 % of control | [5] 92 % of control

CN1C2C=C(c3ccccc3)C(Br)C1CC2 (configuration not stated)
inactive: dose: 20.0 mg/kg/injection, schedule: Q04DX003 (ip), vehicle: saline with Tween-80 95 % of control | dose: 40.0 mg/kg/injection, schedule: Q04DX003 (ip), vehicle: saline with Tween-80 97 % of control | [6] 102 % of control | [7] 98 % of control

COc1ccc(C=NCCN=Cc2ccc(OC)cc2)cc1
inactive: [8] 88 % of control | [9] 106 % of control | [10] 86 % of control | [11] 104 % of control | [12] 90 % of control

Nc1cc2c(cc1N)-c1ccccc1/C2=N\O
inactive: [13] 102 % of control | dose: 150.0 mg/kg/injection, schedule: Q01DX001 (ip), vehicle: carboxymethylcellulose (CMC) 91 % of control

NC(=S)N1CCCC1
inactive: [10] 93 % of control | [14] 96 % of control | [12] 93 % of control

Cn1c(O)c(N=NC(=O)Cc2c[nH]c3ccccc23)c2ccccc21
inactive: dose: 100.0 mg/kg/injection, schedule: Q01DX001 (ip), vehicle: other 101 % of control | dose: 200.0 mg/kg/injection, schedule: Q01DX001 (ip), vehicle: other 95 % of control | dose: 400.0 mg/kg/injection, schedule: Q01DX001 (ip), vehicle: other 95 % of control

CC(C)NC(=O)c1ccc(CNN(C)C)cc1
inactive: dose: 25.0 mg/kg/injection, schedule: Q04DX003 (ip), vehicle: saline 114 % of control | dose: 50.0 mg/kg/injection, schedule: Q04DX003 (ip), vehicle: saline 104 % of control | [15] 112 % of control | [16] 104 % of control | [17] 111 % of control

CCOCCc1ccncc1
inactive: dose: 50.0 mg/kg/injection, schedule: Q01DX009 (ip), vehicle: saline 101 % of control | dose: 100.0 mg/kg/injection, schedule: Q01DX009 (ip), vehicle: saline 94 % of control | dose: 200.0 mg/kg/injection, schedule: Q01DX009 (ip), vehicle: saline 90 % of control

CCOC(=O)c1ncc(Cl)cc1NC(=O)CC(=O)Nc1cc(Cl)cnc1C(=O)OCC
inactive: [15] 97 % of control | [16] 91 % of control | [17] 92 % of control

C/C=C(\CC)C1(CCC)C(=O)NC(=O)N(C)C1=O (configuration not stated)
inactive: dose: 75.0 mg/kg/injection, schedule: Q01DX001 (ip), vehicle: other 103 % of control | [6] 95 % of control | dose: 150.0 mg/kg/injection, schedule: Q01DX001 (ip), vehicle: other 103 % of control | [7] 106 % of control | dose: 300.0 mg/kg/injection, schedule: Q01DX001 (ip), vehicle: other 101 % of control | dose: 300.0 mg/kg/injection, schedule: Q01DX001 (ip), vehicle: saline 106 % of control

CCCCOC(=O)C1OC1(CC)c1ccccc1 (configuration not stated)
inactive: dose: 100.0 mg/kg/injection, schedule: Q04DX002 (ip), vehicle: saline with Tween-80 88 % of control | dose: 200.0 mg/kg/injection, schedule: Q04DX002 (ip), vehicle: saline with Tween-80 97 % of control | dose: 400.0 mg/kg/injection, schedule: Q04DX002 (ip), vehicle: saline with Tween-80 100 % of control

Nc1ncc(CNc2ccc(C(=O)O)cc2)c(N)n1
inactive: [1] 103 % of control | [2] 103 % of control

COc1ccc(N2C(=O)OC3(CCN(CCCC(=O)c4cccs4)CC3)C2=O)cc1
inactive: [3] 88 % of control | [4] 92 % of control | [5] 100 % of control

O=[N+]([O-])c1ccc(N/N=C/c2cccnc2)cc1
inactive: [3] 96 % of control | [9] 92 % of control | [4] 95 % of control | [11] 90 % of control | [5] 88 % of control | [18] 101 % of control

O=C(O)CCc1nc2ccccc2c(=O)[nH]1
inactive: [8] 100 % of control | [9] 100 % of control | [11] 100 % of control

Cc1nc2nc3c(ncn3C3OC(CO)C(O)C3O)c(=O)n2nc1C (configuration not stated)
inactive: dose: 100.0 mg/kg/injection, schedule: Q01DX005 (ip), vehicle: saline 102 % of control | dose: 200.0 mg/kg/injection, schedule: Q01DX005 (ip), vehicle: saline 92 % of control

N/C(=N/N=C/c1ccccn1)N[N+](=O)[O-]
inactive: [19] 105 % of control | [20] 119 % of control | [21] 101 % of control | [22] 105 % of control | [23] 114 % of control

Cc1c(N)cccc1N
inactive: [19] 119 % of control | [20] 95 % of control | [21] 108 % of control | [22] 117 % of control | [23] 117 % of control

O=C(c1ccccc1)c1c(-c2ccccc2)c(-c2ccccc2)n(-c2ccccc2)c1C(=O)c1ccccc1
inactive: dose: 22.2 mg/kg/injection, schedule: Q01DX001 (ip), vehicle: carboxymethylcellulose (CMC) 94 % of control and 96 % of control | dose: 33.35 mg/kg/injection, schedule: Q01DX001 (ip), vehicle: carboxymethylcellulose (CMC) 91 % of control | dose: 50.0 mg/kg/injection, schedule: Q01DX001 (ip), vehicle: carboxymethylcellulose (CMC) 94 % of control | [13] 94 % of control

Clc1ccc2c(OCCN3CC3)ccnc2c1
inactive: dose: 100.0 mg/kg/injection, schedule: Q01DX001 (ip), vehicle: carboxymethylcellulose (CMC) 102 % of control

CCOC(=O)C(C)(C)C(C)=O
inactive: [9] 99 % of control | [10] 103 % of control | [11] 99 % of control | [14] 103 % of control | [18] 95 % of control | [12] 97 % of control

COc1cc2cc[n+](C)c(Cc3ccccc3)c2cc1OC
inactive: [21] 111 % of control | [22] 105 % of control | [24] 107 % of control | [23] 103 % of control | [25] 96 % of control

Sc1cc(Cl)c(Cl)cc1Cl
inactive: dose: 100.0 mg/kg/injection, schedule: Q01DX001 (ip), vehicle: saline with Tween-80 97 % of control | dose: 200.0 mg/kg/injection, schedule: Q01DX001 (ip), vehicle: saline with Tween-80 90 % of control

O=C(NC1CCCCC1)Sc1ccc(Cl)cc1
inactive: dose: 25.0 mg/kg/injection, schedule: Q01DX009 (ip), vehicle: Klucel (hydroxypropylcellulose) (HPC) 104 % of control | dose: 25.0 mg/kg/injection, schedule: Q04DX003 (ip), vehicle: Klucel (hydroxypropylcellulose) (HPC) 94 % of control | [8] 103 % of control | dose: 50.0 mg/kg/injection, schedule: Q04DX003 (ip), vehicle: Klucel (hydroxypropylcellulose) (HPC) 102 % of control | [9] 98 % of control | [10] 100 % of control and 108 % of control

CCN(CC)CCOc1cccc(C)c1C
inactive: [21] 101 % of control | [24] 101 % of control | [23] 98 % of control | dose: 100.0 mg/kg/injection, schedule: Q01DX009 (ip), vehicle: saline with Tween-80 102 % of control | [25] 90 % of control
